Our source for the IC50 values is patent US5891917A, “Certain acrylonitrile-sulfonamide derivatives” (Sugen, Inc., priority 1997, dated 1999).

The target in one assay is T1, IGF-1R (Homo sapiens, UniProt P08069).
T1 construct: expressed in transfected cells; host or cells: 3T3/IGF-1R (mouse NIH 3T3 line overexpressing IGF-1R)
As to the kind of experiment: Cellular IGF-1 Receptor ELISA. Conditions: 3T3/IGF-1R cells, 20 nM IGF-1. The class given is cell-based. On the procedure: Cellular IGF-1 Receptor ELISA (Version I)
(1). The cell line used in this assay is 3T3/IGF-1R, a cell line which overexpresses IGF-1 Receptor.
(2). 3T3/IGF-1R is grown in an incubator with 5% CO2 at 37° C. The growth media is DMEM+10% FBS (heat inactivated)+2mM L-Glutamine.
(3). For ELISA plate coating, the anti-IGF-1R antibody named 17-69 is used. Antibodies are purified by the Enzymology Lab, SUGEN, Inc.
(10). Insulin-like growth factor-1 from Promega (Cat# G5111).
(11). Polyclonal antiserum Anti-phosphotyrosine:
(1). The cells, grown in tissue culture dish (10 cm, Corning 25020-100) to 80-90% confluence, are harvested with Trypsin-EDTA (0.25%, 0.5 ml/D-100, GIBCO).
(2). Resuspend the cells in fresh DMEM +10% FBS+2 mM L-Glutamine, and transfer to 96-well tissue culture plate (Corning, 25806-96) at 20,000 cells/well (100 ul/well). Incubate for 1 day then replace medium to serum-free medium (90/ul) and incubate in 5% CO2 and 37° C. overnight.
(1). Coat the ELISA plate (Corning 25805-96) with Anti-IGF-1R Antibody at 0.5 ug/well in 100 ul PBS at least 2 hours. (2). Remove the coating solution, and replace with 100 ul Blocking Buffer, and shake for 30 minutes. Remove the blocking buffer and wash the plate just before adding lysate.
(1). The drugs are tested in serum-free condition.
(2). Dilute drug stock (in 100% DMSO) 1:10 with DMEM in 96-well poly-propylene plate, and transfer 10 ul/well of this solution to the cells to achieve final drug dilution 1:100, and final DMSO concentration of 1.0%. Incubate the cells in 5% CO2 at 37° C. for 2 hours.
(3). Prepare fresh cell lysis buffer (HNTG HNTG 2 ml EDTA 0.1 ml Na3VO4 0.1 ml Na4P2O7 0.1 ml H20 7.3 ml HNTG* 10 ml.
(4). After drug incubation for two hours, transfer 10 ul/well of 200nM IGF-1 Ligand in PBS to the cells (Final Conc=20 nM), and incubate at 5% CO2 at 37° C. for 10 minutes.
(5). Remove media and add 100 ul/well HNTG* and shake for 10 minutes. Look at cells under microscope to see if they are adequately lysed.
(6). Use a 12-channel pipette to scrape the cells from the plate, and homogenize the lysate by repeat aspiration and dispense. Transfer all the lysate to the antibody coated ELISA plate [V.2.(2)], and shake for 1 hour.
(7). Remove the lysate, wash the plate, transfer anti-pTyr (1:3,000 with TBST) 100 ul/well, and shake for 30 minutes.
(7). Remove anti-pTyr, wash the plate, transfer detection antibody (1:3,000 with TBST) 100 ul/well, and shake for 30 minutes.
(8). Remove detection antibody, wash the plate, and transfer fresh ABTS/H2O2 (1.2 ul H2O2 to 10 ml ABTS) 100 ul/well to the plate to start color development.
(9). Measure OD (410 nm) in Dynatec MR5000, which is connected to Ingres.
For orientation: ELISA stands for enzyme-linked immunosorbent assay.

In the next assay the test system is MCF7 cells. The experiment in a line: MCF-7 SRB Growth Assay. The class given is cell-based. Conditions: Homo sapiens, read-out: Growth Data: MCF7 10% FBS. The text has this:
The following examples illustrate the ability of the exemplary compounds to inhibit receptor tyrosine kinases, such as HER2 and/or EGFR. The following target cells were used for cellular kinase assays: NIH3T3 clone C7 (Honegger et al., supra) engineered to over-express human EGF receptor; NIH3T3 cells engineered to over-express a chimeric receptor containing the EGFR extracellular domain and the HER2 intracellular kinase domain; the human mammary carcinoma line BT474 (ATCC HTB2) expressing HER2; and the human glioblastoma line U1242 that expresses PDGFR-beta. Growth assays were carried out using human mammary epithelial SKBR3 (ATCC HTB30) cells (SKBR3 cells over-express HER2), SKOV3 (ATCC HTB77) human ovarian cancer cell line (SKOV3 cells also over-express HER2), A431 cells (A431 cells over-express EGFR) MCF7 human breast carcinoma cells, MCF7 cells overexpressing the HER2 kinase (MCF7-HER2), NIH3T3 cells, and NIH3T3 cells overexpressing the HER2 kinase (3T3-HER2.
MCF-7 cells are seeded at 2000 cells/well in a 96-well flat bottom plate in normal growth media, which was 10% FBS/RPMI supplemented with 2 mM Glutamine. The plate of cells is incubated for about 24 hours at […] after which it receives an equal volume of compound dilution per well making the total volume per well 200 μl. The compound is prepared at 2 times the desired highest final concentration and serially diluted in the normal growth media in a 96-well round bottom plate and then transferred to plate of cells. DMSO serves as the vector control up to 0.2% as final concentration. The cells are then incubated at 37° C. in a humidified 5% CO2 incubator.
Four days following dosing of compound, the media is 15 discarded and 200 μ/well of ice-cold 10% TCA (Trichloroacetic Acid) is added to fix cells. After 60 minutes at 4° C., the TCA is discarded and the plate is rinsed 5 times with water. The plate is then air-dried and 100 μl/well of 0.4% SRB (Sulforhodamine B from Sigma) 20 in 1% Acetic Acid is added to stain cells for 10 minutes at room temperature. The SRB is discarded and the plate is rinsed 5 times with 1% Acetic Acid. After the plate is completely dried, 100 μl/well of 10 mM Tris-base is added to solubilize the dye. After 5 to 10 minutes, the plate is read on a Dynatech ELISA Plate Reader at dual wavelengths at 570 nm and 630 nm.

T1 sequence (P08069 741-1367 limits assumed): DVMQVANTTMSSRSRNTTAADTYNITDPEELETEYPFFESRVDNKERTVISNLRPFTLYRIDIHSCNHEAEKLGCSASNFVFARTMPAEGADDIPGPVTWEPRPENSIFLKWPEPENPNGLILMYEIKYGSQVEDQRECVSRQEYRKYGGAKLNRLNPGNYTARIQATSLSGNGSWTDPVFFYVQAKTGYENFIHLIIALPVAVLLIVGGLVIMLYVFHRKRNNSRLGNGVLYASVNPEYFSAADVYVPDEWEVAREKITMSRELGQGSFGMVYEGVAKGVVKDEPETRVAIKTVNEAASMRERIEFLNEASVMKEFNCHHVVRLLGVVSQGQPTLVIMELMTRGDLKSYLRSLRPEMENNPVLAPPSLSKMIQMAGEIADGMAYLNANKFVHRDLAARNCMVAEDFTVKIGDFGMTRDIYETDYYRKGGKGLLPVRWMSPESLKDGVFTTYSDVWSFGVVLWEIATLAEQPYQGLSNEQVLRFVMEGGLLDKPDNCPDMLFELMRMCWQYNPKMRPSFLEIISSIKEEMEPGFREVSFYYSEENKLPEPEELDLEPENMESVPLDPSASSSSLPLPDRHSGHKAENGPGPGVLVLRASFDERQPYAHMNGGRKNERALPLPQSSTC
T1 sequence (P08069 31-736 partner limits assumed): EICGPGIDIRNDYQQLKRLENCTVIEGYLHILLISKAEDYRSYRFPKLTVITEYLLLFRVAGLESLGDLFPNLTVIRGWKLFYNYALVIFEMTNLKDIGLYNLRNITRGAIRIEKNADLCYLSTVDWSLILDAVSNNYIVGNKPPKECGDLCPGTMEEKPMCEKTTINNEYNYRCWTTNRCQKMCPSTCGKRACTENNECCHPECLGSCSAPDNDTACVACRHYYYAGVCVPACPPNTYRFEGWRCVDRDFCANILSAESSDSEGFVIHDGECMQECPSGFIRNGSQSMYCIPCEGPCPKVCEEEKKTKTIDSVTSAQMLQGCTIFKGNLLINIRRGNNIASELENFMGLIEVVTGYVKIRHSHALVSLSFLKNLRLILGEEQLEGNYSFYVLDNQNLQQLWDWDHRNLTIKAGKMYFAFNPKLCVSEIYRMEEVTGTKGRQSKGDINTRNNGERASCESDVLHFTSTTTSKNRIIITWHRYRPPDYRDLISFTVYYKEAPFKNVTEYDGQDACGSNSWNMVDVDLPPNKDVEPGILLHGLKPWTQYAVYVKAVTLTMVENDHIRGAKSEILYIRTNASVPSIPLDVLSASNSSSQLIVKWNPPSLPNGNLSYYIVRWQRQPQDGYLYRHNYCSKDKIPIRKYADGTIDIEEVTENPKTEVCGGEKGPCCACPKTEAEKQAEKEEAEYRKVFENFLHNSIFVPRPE

At IGF-1R, `N#C/C(=C\c1ccc(O)c(O)c1)S(=O)(=O)c1cccs1` [Compound 743, (E)-3-(3,4-Dihydroxyphenyl)-2-[(thien-2-yl)sulfonyl]acrylonitrile] yielded an IC50 above 100 µM. Regarding `CC(C)(C)c1cc(/C=C(\C#N)S(=O)(=O)c2ccc(F)cc2)cc(C(C)(C)C)c1O` [Compound 740], the values for the IC50 on IGF-1R and with MCF7 cells were above 100 µM and 0.2 µM, respectively. Regarding `Cc1cc(/C=C(\C#N)S(=O)(=O)c2ccc(F)cc2)cc(C)c1O` [Compound 744], the IC50 against IGF-1R and with MCF7 cells was above 100 µM each time. On to `CC(C)(C)c1cc(/C=C(\C#N)S(=O)(=O)c2cccs2)cc(C(C)(C)C)c1O` [Compound 742], for which the IC50 against IGF-1R was above 100 µM; in the assay with MCF7 cells, 2 µM. The like results for `N#C/C(=C\c1ccc(O)cc1Cl)S(=O)(=O)NCc1ccccc1` [Compound 733] were, in that order, above 100 µM and 65 µM. In the case of `CC(C)c1cc(/C=C(\C#N)S(=O)(=O)Cc2cccc(C(F)(F)F)c2)cc(C(C)C)c1O` [Compound 736], the IC50 at IGF-1R was determined as 19 µM; in the assay with MCF7 cells it was 8 µM. Take `CC(C)c1cc(/C=C(\C#N)S(=O)(=O)c2ccccn2)cc(C(C)C)c1O` [Compound 747]: the IC50 at IGF-1R is above 100 µM; in the assay with MCF7 cells, 55 µM. Regarding `CC(C)c1cc(/C=C(\C#N)S(=O)(=O)c2ccc(F)cc2)cc(C(C)C)c1O` [Compound 741, (E)-3-(3,5-Diisopropyl-4-hydroxyphenyl)-2-(4-fluorophenylsulfonyl)acrylonitrile], the IC50 at IGF-1R worked out at 28.3 µM; in the assay on MCF7 cells, 8 µM. As to `N#C/C(=C\c1ccc(O)cc1Cl)S(=O)(=O)NCCCc1ccccc1` [Compound 734], the results for the IC50 on IGF-1R and in the assay on MCF7 cells were 93.9 µM and 56 µM, respectively. In the case of `CC(C)(C)c1cc(/C=C(\C#N)S(=O)(=O)Cc2cccc(C(F)(F)F)c2)cc(C(C)(C)C)c1O` [Compound 735], the IC50 against IGF-1R is above 100 µM; in the assay on MCF7 cells it was 0.7 µM. Regarding `CC(C)c1cc(/C=C(\C#N)S(=O)(=O)c2cccs2)cc(C(C)C)c1O` [Compound 737], the IC50 against IGF-1R turned out to be 93.5 µM; with MCF7 cells it was 16 µM.

Take `CC(C)(C)c1cc(/C=C(\C#N)S(=O)(=O)c2ccsc2)cc(C(C)(C)C)c1O` [Compound 746]: the IC50 was above 100 µM on IGF-1R and 2 µM in the assay on MCF7 cells.

For the molecule `Cc1cc(/C=C(\C#N)S(=O)(=O)c2ccccc2)cc(C)c1O` [Compound 748], the IC50 against IGF-1R and in the assay with MCF7 cells was above 100 µM throughout. Turning to `CC(C)c1cc(/C=C(\C#N)S(=O)(=O)/C(C#N)=C/c2cc(C(C)C)c(O)c(C(C)C)c2)cc(C(C)C)c1O` [Compound 745], the IC50 against IGF-1R came out at 69 µM. As for `CC(C)c1cc(/C=C(\C#N)S(=O)(=O)c2ccccc2)cc(C(C)C)c1O` [Compound 731], the values for the IC50 on IGF-1R and with MCF7 cells were 29.2 µM and 12 µM, respectively. For `CC(C)c1cc(/C=C(\C#N)S(=O)(=O)c2ccsc2)cc(C(C)C)c1O` [Compound 738], in that order: above 100 µM and 17 µM. On to `Cc1cc(/C=C(\C#N)S(=O)(=O)Cc2cccc(C(F)(F)F)c2)cc(C)c1O` [Compound 739], for which the results for the IC50 at IGF-1R and with MCF7 cells were above 100 µM and 35 µM, respectively.

As to `CC(C)c1cc(/C=C(\C#N)S(=O)(=O)NCc2ccccc2)cc(C(C)C)c1O` [Compound 732], the IC50 against IGF-1R came out at 11.8 µM; with MCF7 cells, 13 µM.
